From patent publication US20230332232A1, “COMPOSITIONS AND METHODS FOR DIAGNOSING AND TREATING A DYSTONIA” (Duke University, priority 2020, published 2023)

System: wild-type (WT) murine embryonic fibroblasts (MEFs)
Experiment: Untargeted LC/MS/MS proteomics of EVs from WT MEFs exposed 24 hours to drug, compared with untreated WT MEFs
Type: cell-based, mouse
Description: Methods for isolation and purification of exosomes and extracellular vesicles (EV) were extensively reviewed. Experiments were performed to arrive at a robust and reproducible protocol. The protocol used herein is that set forth in Théry et al, 2006, which is incorporated by reference for it teaching of this protocol. This protocol involves depleting serum-derived EVs from cell culture media by overnight ultracentrifugation and exchanging media for 1% FBS EV-depleted media. Media is then collected from cells following a 24-hour conditioning period and EVs are isolated by 18-hour ultracentrifugation at 100,000 g (FIG. 1A).
EVs were isolated from media of cultured murine embryonic fibroblasts (MEFs) prepared in-house according to protocols described by Xu 2005 from DYT1 knockin mice (Tor1a^delGAG/+) (Goodchild R E, et al. (2005) Neuron. 48:923-932) and littermate wild-type (WT) controls. The cultured MEFs from the DYT1 mice were exposed for 24 hours to Ritonavir (RTV) while the MEFs from WT mice were exposed to vehicle, ISRIB, or Salubrinal (SAL). The EVs isolated from these WT cells and DYT1 were characterized by untargeted proteomics and RNA-seq to identify differentially expressed proteins and RNAs as candidate biomarkers. Experimenter and Proteomics core staff were blinded to genotype of cell cultures throughout preparation and analysis phases. EV isolation was confirmed by Western immunoblot documenting presence of the exosomal marker (TSG101) and absence of the endoplasmic reticulum (ER) marker (CANX) (FIG. 1B (Cohort 1) and FIG. 1C (Cohort 2)).
Following the bicinchoninic acid assay (BCA) analysis and Western immunoblot of a portion of samples for QC, 11.6 μg-129.2 μg of EV protein lysates in RIPA buffer were sent to the Duke Proteomics and Metabolomics Shared Resource core facility for LC/MS/MS quantitative proteomic analysis. Samples were first normalized to 20 μg and spiked with undigested casein at a total of 40 fmol/μg, 80 fmol/μg, or 160 fmol/μg, then reduced with 10 mM dithiolthreitol for 30 minute at 80° C. and alkylated with 20 mM iodoacetamide for 30 minutes at room temperature. Next, the samples were supplemented with a final concentration of 1.2% phosphoric acid and 741 μL of S-Trap (Protifi) binding buffer (90% MeOH/100 mM […]). Proteins were trapped on the S-Trap, digested using 20 ng/μL sequencing grade trypsin (Promega) for 1 hour at 47° C., and eluted using 50 mM TEAB, followed by 0.2% FA, and lastly using 50% CAN/0.2% FA. All samples were then lyophilized to dryness and resuspended in 40 μL 1% TFA/2% acetonitrile containing 12.5 fmol/μL yeast alcohol dehydrogenase (ADH_YEAST). A QC Pool was created from 3 uL of each sample. All QC Pools were run periodically throughout the acquisition period.
Quantitative LC/MS/MS was performed on 2 μL of each sample, using a nanoAcquity UPLC system (Waters Corp) coupled to a Thermo Orbitrap Fusion Lumos high resolution accurate mass tandem mass spectrometer (Thermo) via a nanoelectrospray ionization source. Briefly, the sample was first trapped on a Symmetry C18 20 mm×180 μm trapping column (5 μL/min at 99.9/0.1 v/v water/acetonitrile), after which the analytical separation was performed using a 1.8 μm Acquity HSS T3 C18 75 μm×250 mm column (Waters Corp.) with a 90 minute linear gradient of 5% to 30% acetonitrile with 0.1% formic acid at a flow rate of 400 nanoliters/minute (nL/min) with a column temperature of 55° C. Data collection on the Fusion Lumos mass spectrometer was performed in a data-dependent acquisition (DDA) mode of acquisition with a r=120,000 (@ m/z 200) full MS scan from m/z 375-1500 with a target AGC value of 2e5 ions. MS/MS scans were acquired at Rapid scan rate (Ion Trap) with an AGC target of 5e3 ions and a max injection time of 100 ms. The total cycle time for MS and MS/MS scans was 2 seconds. A 20 second dynamic exclusion was employed to increase depth of coverage. The total analysis cycle time for each sample injection was approximately 2 hours. […]

Measured: ISRIB Direction Same as dE?

O=C(COc1ccc(Cl)cc1)NC1CCC(NC(=O)COc2ccc(Cl)cc2)CC1 (stereo not shown) [ISRIH]
yes: EV protein: 26S proteasome non-ATPase regulatory subunit 8 | EV protein: 60S [?] subunit biogenesis protein [?] homolog | EV protein: 116 kDa [?] small nuclear ribonucleoprotein component | EV protein: AP-3 complex subunit [?] | EV protein: ATP- binding cassette sub-family [?] member 1 | EV protein: ATP-dependent RNA helicase [?] | EV protein: Acetyl-CoA carboxylase 1 | EV protein: Acyl-protein thioesterase 2 | EV protein: Anaphase-promoting complex subunit 2 | EV protein: Anaphase-promoting complex subunit 4 | EV protein: Anaphase-promoting complex subunit 5 | EV protein: Anaphase-promoting complex subunit 7 | EV protein: Apolipoprotein M | EV protein: Cell [?] cycle protein [?] homolog | EV protein: Cell division cycle protein 27 homolog | EV protein: Coiled-coil domain-containing protein 22 | EV protein: Cullin-2 | EV protein: Cullin-5 | EV protein: Cullin-7 | EV protein: Cytosolic purine [?] -nucleotidase | EV protein: DNA [?] (r264) | EV protein: DNA [?] licensing factor MCM4 | EV protein: DNA ligase 1 | EV protein: DNA replication licensing factor MCM5 | EV protein: DNA replication licensing factor [?] | EV protein: DNA-directed RNA polymerase II subunit RPB1 | EV protein: DNA-directed RNA polymerase II subunit RPB2 | EV protein: DNA-directed RNA polymerase II subunit RPB3 | EV protein: DNA-directed RNA polymerase [?] subunit RPA2 | EV protein: DNA-directed RNA polymerases I, II, and III subunit RPABC3 | EV protein: DNA-directed RNA polymerases I, II, and III subunit [?] | EV protein: Developmentally-regulated GTP-binding protein 2 | EV protein: Double-strand-break repair protein rad21 homolog | EV protein: Dual specificity mitogen-activated protein kinase kinase 4 | EV protein: Dynactin subunit 4 | EV protein: E3 ubiquitin-protein ligase [?] | EV protein: Elongin-B | EV protein: Exosome complex exonuclease RRP44 | EV protein: Gamma-tubulin complex component 2 | EV protein: Glucose-6-phosphate 1-dehydrogenase [?] | EV protein: Glycosylated lysosomal membrane protein | EV protein: Glycylpeptide N-tetradecanoyltransferase 1 | EV protein: Golgi reassembly-stacking protein 2 | EV protein: Histone-arginine methyltransterase CARM1 | EV protein: Immunity-related GTPase family M protein 1 | EV protein: Interleukin enhancer-binding factor 3 | EV protein: Leucyl-cystinyl aminopeptidase | EV protein: Lysine-specific histone demethylase [?] | EV protein: Mediator [?] RNA polymerase II transcription subunit 23 | EV protein: Metastasis-associated protein [?] (r222) | EV protein: Metastasis-associated protein [?] (r261) | EV protein: Methyl-CpG-binding domain protein [?] | EV protein: Microtubule-associated protein [?] | EV protein: N-alpha-acetyltransferase 10 | EV protein: Nuclear [?] complex protein [?] | EV protein: Nuclear cap-binding protein subunit 1 | EV protein: NudC domain-containing protein 1 | EV protein: Phosphoribosyl pyrophosphate synthase-associated protein 1 | EV protein: Probable ubiquitin carboxyl-terminal hydrolase [?] | EV protein: Protein O-GlcNAcase | EV protein: Protein RMD5 homolog A | EV protein: Protein [?] 14 homolog | EV protein: Protein transport protein [?] | EV protein: Ran-binding protein 10 | EV protein: Ribosome biogenesis protein BOP1 | EV protein: Ribosome production factor 2 homolog | EV protein: Serine threonine-protein phosphatase 2A 56 kDa regulatory subunit gamma isoform | EV protein: Serine threonine-protein phosphatase 6 catalytic subinit | EV protein: Sorting nexin-1 | EV protein: Splicing factor 3B subunit 4 | EV protein: Structural maintenance of [?] protein 2 | EV protein: WASH complex subunit 5 | EV protein: WD repeat-containing protein [?] | EV protein: WW domain-binding protein 2 | EV protein: [?] 2 (r185) | EV protein: [?] (r186) | EV protein: [?] -1 (r187) | EV protein: [?] -1 (r232) | EV protein: [?] -conjucating enxyme [?] | EV protein: [?] -promoting complex subunit 1 | EV protein: [?] -related [?] -associated actin-dependent regulator [?] chromatin subfamily A member 5 | EV protein: [?] complex subunit 2 | EV protein: [?] kinase | EV protein: [?] repeat-containing protein 5A | EV protein: [?] small nuclear ribonucleoprotein 40 kDa protein | EV protein: [?] small nucleolar RNA-associated protein 15 homolog | EV protein: [?] ubiquitin-protein ligase [?] | EV protein: p21-activated protein kinase-interacting protein 1 | EV protein: transportin-3 | WT MEF EVs, protein: DNA replication licensing factor MCM6 | WT MEF EVs, protein: DNA-directed RNA polymerases I and III subunit RPAC1 | WT MEF EVs, protein: Protein arginine N-methyltransferase 3 | WT MEF EVs, protein: Scavenger receptor class B member 1 | WT MEF EVs, protein: Serine threonine-protein phosphatase 2A 55 kDa regulatory subunit B alpha isoform | WT MEF EVs, protein: Small nuclear ribonucleoprotein-associated protein B | WT MEF EVs, protein: WASH complex subunit 4 | WT MEF EVs, protein: WD repeat-containing protein 26
